Series [1] in a line: Intrinsic clearance in rat liver microsomes at 1 uM peincubated for 10 mins followed by NADPH addition and measured 60 mins by LC-MS/MS analysis. It counts as ADME, Microsome. Conditions: time 70 min, read-out: CLH. (Liver microsomes are a subcellular fraction often used to study metabolism.)
Series [2] in a line: Half life in rat liver microsomes at 1 uM peincubated for 10 mins followed by NADPH addition and measured 60 mins by LC-MS/MS analysis. The series is classed as ADME, Microsome. The note with it: time 70 min.
In series [3] the target is T1, C-X-C chemokine receptor type 4 (Homo sapiens, UniProt P61073). The series can be described thus: Antagonist activity at CXCR4 in human CD4-positive T cells assessed as inhibition of CXCL12-induced cytosolic calcium flux preincubated for 20 mins followed by CXCL12 addition by calcium 4 dye based FLIPR TETRA analysis. It counts as functional, cell-based, T cell.
T1 sequence (P61073 whole entry): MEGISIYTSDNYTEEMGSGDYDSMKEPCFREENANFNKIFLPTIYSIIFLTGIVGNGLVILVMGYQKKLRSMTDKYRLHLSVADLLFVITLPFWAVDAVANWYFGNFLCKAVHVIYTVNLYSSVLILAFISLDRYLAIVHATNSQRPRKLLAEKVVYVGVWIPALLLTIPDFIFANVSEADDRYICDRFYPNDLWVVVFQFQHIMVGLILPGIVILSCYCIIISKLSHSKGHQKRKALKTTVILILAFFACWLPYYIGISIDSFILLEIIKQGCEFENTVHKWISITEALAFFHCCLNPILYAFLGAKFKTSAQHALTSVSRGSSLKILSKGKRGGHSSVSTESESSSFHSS
Series [4] concerns the target T1, C-X-C chemokine receptor type 4. The series can be described thus: Antagonist activity at CXCR4 in human MDA-MB-231 cells assessed as inhibition of CXCL12-induced cell migration at 100 nM measured after 24 hrs by crystal violet staining based matrigel invasion assay. Conditions: filed as antagonist.
Series [5] shares this target. Nature of the series: Inhibition of APC-conjugated anti-human CXCR4 clone 12G5 binding to CXCR4 in human HPBALL cells measured after 3 hrs by FACS analysis. It counts as cell-based. In general terms: Flow cytometry measures light scatter and fluorescence of single cells or particles in a stream.

Calls of active or inactive are those of the source. No cut-off for these calls is given here.

Usually half-life stands for the time in which the quantity being followed falls by half. A higher half-life goes with slow loss. On to `CN1CCN(c2cc(CN(C)C3CCCc4cccnc43)nc(N)n2)CC1` (stereo not given), for which the CLint scaled at 1 µM in series [1] came to 46 L/h/kg. The molecule also came in with a half-life at 1 µM in series [2] of 3.24 min.

As for `Cc1nc(CN(C)C2CCCc3cccnc32)c(C#N)c(N2CCN(C)CC2)n1` (stereo not given), the CLint scaled at 1 µM in series [1] was determined as 98.6 L/h/kg. The same molecule yielded a half-life at 1 µM in series [2] of 1.51 min.

As for `CN1CCN(c2cccc3nc(CN(C)[C@H]4CCCc5cccnc54)c(CO)n23)CC1`, the CLint scaled at 1 µM in series [1] came out at 39.1 L/h/kg. The molecule further came in with a half-life at 1 µM in series [2] of 3.82 min.

The term IC50 denotes the concentration that inhibits the measured activity by half. Turning to `Cc1nc(CN2CCC[C@H]2c2ncccc2C)cc(N2CCC(N(C)C)CC2)n1`, the IC50 in series [3] was 0.013 µM.

For `c1cc(CN2CCCNCCNCCCNCC2)ccc1CN1CCCNCCNCCCNCC1`, the inhibition result in series [4] was “Active”.

For the molecule `Cc1nc(CN2CCC[C@@H]2c2ccccn2)cc(N2CCN(C)CC2)n1`, the IC50 in series [5] was > 10 µM.

On to `Cc1nc(CN(C)[C@H]2CCCc3cccnc32)cc(N2CCN3CCC[C@H]3C2)n1`, for which, in series [1], the CLint scaled at 1 µM was > 29.8 L/h/kg. The half-life at 1 µM in series [2] is < 1 min.

Turning to `CN1CCN(c2cc(CN(C)C3CCCc4cccnc43)nc(C3CC3)n2)CC1` (stereo not given), in series [1], the CLint scaled at 1 µM was determined as 146 L/h/kg. In series [2], this molecule returned a half-life at 1 µM of 1.02 min.

`Cc1nc(CN2CCCC2c2ccccn2)cc(N2CCN(C)CC2)n1` (stereo not given) came in with an IC50 in series [5] of 0.319 µM.

As for `Cc1nc(CN2CCCCC2c2ccccn2)cc(N2CCN(C)CC2)n1` (stereo not given), in series [5], the IC50 was 0.62 µM.

`Cc1nc(CN(C)[C@H]2CCCc3cccnc32)cc(N2CCN(C)CC2)n1`: the CLint scaled at 1 µM in series [1] is 94 L/h/kg. This molecule also registered a half-life at 1 µM in series [2] of 1.59 min.

For the molecule `Cc1cccc([C@@H]2CCCN2Cc2cc(N3CCN(C)CC3)nc(C)n2)n1`, in series [5], the IC50 came out at 2.39 µM.

Take `Cc1nc(CN(C)[C@H]2CCCc3cccnc32)cc(N2CCN(C)[C@H](C)C2)n1`: the CLint scaled at 1 µM in series [1] is > 29.8 L/h/kg. Also, in series [2], the half-life at 1 µM was < 1 min.

For the origin of these results see ChEMBL document CHEMBL4765416, “Design, synthesis, and evaluation of pyrrolidine based CXCR4 antagonists with in vivo anti-tumor metastatic activity” (Eur J Med Chem, 2020).
